Test results published in patent US7678774B2 (priority 2003, dated 2010).

Experiments:
[1] = system: Mouse Hepatitis Virus Type-3 (MHV-3); conditions: in vivo; cited from earlier work
[2] = system: human coronavirus strain OC-43; assay type: cell-based
[3] = system: Four human tumor cell lines; conditions: cited from earlier work
[4] = system: Mouse Hepatitis Virus Type-3 (MHV-3); conditions: in vivo; cited from earlier work; remark: listed apart in the source
[5] = system: human coronavirus strain OC-43; assay type: cell-based; remark: listed apart in the source
coronavirus (SARS) = conditions: cited from earlier work

**Q.** For rIn.r(C12U)n, which “Virus clearance and development of chronic hepatitis” value [1] is on record?
**A.** cleared the virus quickly and did not develop chronic hepatitis

**Q.** What about the “Inhibition of virus in neutral red assay” value [2] of the same compound?
**A.** inhibit

**Q.** And the “Antiproliferative interaction with interferons” value [3]?
**A.** worked synergistically with all interferons in all cell lines studied

**Q.** What about the “Survival relative to untreated mice” value [4] of the same compound?
**A.** survived up to four times longer

**Q.** What about the “Inhibition of virus in viral cytopathic inhibition assay” value [5] of the same compound?
**A.** inhibit

**Q.** For NC(=O)c1ncn([C@@H]2O[C@H](CO)[C@@H](O)[C@H]2O)n1 [ribavirin], which “Effect on the SARS coronavirus” value (coronavirus (SARS)) is on record?
**A.** no effect
